Reference: patent US6906095B2, “Indolylalkylidenehydrazine-carboximidamide derivatives as 5-hydroxytryptamine-6 ligands” (Wyeth, priority 2002, dated 2005)

The compounds below were run against T1, human cloned 5-HT6 receptors (Homo sapiens, UniProt P50406) (assay: 5-HT6 binding affinity, [3H]-LSD displacement in membranes of Hela cells). Conditions: not given.
T1 construct: expressed in transfected cells; host or cells: Hela cells
Method: The affinity of test compounds for the serotonin 5-HT6 receptor is evaluated in the following manner. Cultured Hela cells expressing human cloned 5-HT6 receptors are harvested and centrifuged at low speed (1,000×g) for 10.0 min to remove the culture media. The harvested cells are suspended in half volume of fresh physiological phosphate buffered saline solution and recentrifuged at the same speed. This operation is repeated. The collected cells are then homogenized in ten volumes of 50 mM Tris.HCl (pH 7.4) and 0.5 mM EDTA. The homogenate is centrifuged at 40,000×g for 30.0 min and the precipitate is collected. The obtained pellet is resuspended in 10 volumes of Tris.HCl buffer and recentrifuged at the same speed. The final pellet is suspended in a small volume of Tris.HCl buffer and the tissue protein content is determined in aliquots of 10-25 μl volumes. Bovine Serum Albumin is used as the standard in the protein determination according to the method described in Lowry et al., J. Biol. Chem., 193:265 (1951). The volume of the suspended cell membranes is adjusted to give a tissue protein concentration of 1.0 mg/ml of suspension. The prepared membrane suspension (10 times concentrated) is aliquoted in 1.0 ml volumes and stored at −70° C. until used in subsequent binding experiments.
The reaction is allowed to proceed in the dark for 120 min at room temperature, at which time, the bound ligand-receptor complex is filtered off on a 96 well unifilter with a Packard Filtermate® 196 Harvester. The bound complex caught on the filter disk is allowed to air dry and the radioactivity is measured in a Packard TopCount® equipped with six photomultiplier detectors, after the addition of 40.0 μl Microscint®-20 scintillant to each shallow well. The unifilter plate is heat-sealed and counted in a PackardTopCount® with a tritium efficiency of 31.0%.
Specific binding to the 5-HT6 receptor is defined as the total radioactivity bound less the amount bound in the presence of 10.0 μM unlabeled methiothepin. Binding in the presence of varying concentrations of test compound is expressed as a percentage of specific binding in the absence of test compound. The results are plotted as logit % bound versus log concentration of test compound. Nonlinear regression analysis of data points with a computer assisted program Prism® yields both the IC50 and the Ki values of test compounds with 95% confidence limits.
The amount of displacement by the test compound is given in percent (%) inhibition and is derived from the following equation: [formula] where B0 is the amount of CPM bound in the presence of the testing agent. NSB represents the CPM bound in the presence of a saturating concentration of a displacer and TB represents the total amount of CPM bound at zero (0) concentration of test compound.
Alternatively, a linear regression line of decline of data points is plotted, from which the IC50 value can be read off and the Ki value determined by solving the following equation: [formula] where L is the concentration of the radioactive ligand used and KD is the dissociation constant of the ligand for the receptor, both expressed in nM.

T1 sequence (P50406 whole entry): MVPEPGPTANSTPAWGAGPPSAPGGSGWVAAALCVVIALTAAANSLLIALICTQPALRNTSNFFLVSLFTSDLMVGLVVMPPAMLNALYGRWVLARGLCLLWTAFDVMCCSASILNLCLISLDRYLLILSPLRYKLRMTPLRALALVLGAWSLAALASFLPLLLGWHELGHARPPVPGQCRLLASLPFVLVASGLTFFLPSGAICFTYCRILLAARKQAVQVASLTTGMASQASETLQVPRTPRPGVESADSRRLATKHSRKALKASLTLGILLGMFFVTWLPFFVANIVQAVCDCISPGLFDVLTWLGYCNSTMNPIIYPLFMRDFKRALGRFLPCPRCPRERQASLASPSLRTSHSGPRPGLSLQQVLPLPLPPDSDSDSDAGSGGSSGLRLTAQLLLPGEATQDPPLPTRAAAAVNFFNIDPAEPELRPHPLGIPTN

Row | SMILES | Ki [nM]
1 | N=C(N)NN=C(Cc1ccccc1)c1cn(S(=O)(=O)c2ccccc2)c2ccccc12 [Example 6, 2-{2-phenyl-1-[1-(phenylsulfonyl)-1H-indol-3-yl]ethylidene}hydrazinecarboximidamide] | 11
2 | CCC(=NNC(=N)N)c1cn(S(=O)(=O)c2ccc3ccccc3c2)c2ccc(F)cc12 [Example 120, 2-{1-[5-fluoro-1-(2-naphthylsulfonyl)-1H-indol-3-yl]propylidene}hydrazinecarboximidamide] | 85
3 | CC(=NNC(=N)N)c1cn(S(=O)(=O)c2ccc(Cl)s2)c2ccccc12 [Example 37, 2-(1-{1-[(5-chlorothien-2-yl)sulfonyl]-1H-indol-3-yl}ethylidene)hydrazinecarboximidamide] | 25
4 | CC(=NNC(=N)N)c1cn(S(=O)(=O)c2ccccc2Br)c2ccccc12 [Example 31, 2-(1-{1-[(2-bromophenyl)sulfonyl]-1H-indol-3-yl}ethylidene)hydrazinecarboximidamide] | 13
5 | CC(C)CC(=NNC(=N)N)c1cn(S(=O)(=O)c2ccccc2)c2ccccc12 [Example 7, 2-{3-methyl-1-[1-(phenylsulfonyl)-1H-indol-3-yl]butylidene}hydrazinecarboximidamide] | 12
6 | CCC(=NNC(=N)N)c1cn(S(=O)(=O)c2ccccc2)c2ccc(F)cc12 [Example 118, 2-{1-[5-fluoro-1-(phenylsulfonyl)-1H-indol-3-yl]propylidene}hydrazinecarboximidamide] | 7
7 | CCC(=NNC(=N)N)c1cn(S(=O)(=O)c2ccc(N)cc2)c2ccc(F)cc12 [Example 119, 2-(1-{1-[(4-aminophenyl)sulfonyl]-5-fluoro-1H-indol-3-yl}propylidene)hydrazinecarboximidamide] | 2
8 | CC(=NNC(=N)N)c1cn(S(=O)(=O)c2c(Cl)nc3sccn23)c2ccccc12 [Example 36, 2-(1-{1-[(6-chloroimidazo[2,1-b][1,3]thiazol-5-yl)sulfonyl]-1H-indol-3-yl}ethylidene)hydrazinecarboximidamide] | 8

Same assay, conditions: test compound dose 10 nM; [3H]-LSD 3.0 nM

Row | SMILES | inhibition at 0.01 µM [%]
9 | CC(=NNC(=N)N)c1cn(S(=O)(=O)c2ccccc2)c2ccc(I)cc12 [Example 17, 2-{1-[5-iodo-1-(phenylsulfonyl)-1H-indol-3-yl]ethylidene}hydrazinecarboximidamide] | 52

Same assay, conditions: test compound dose 100 nM; [3H]-LSD 3.0 nM

Row | SMILES | inhibition at 0.1 µM [%]
10 | CCCNC(=N)NN=C(C)c1cn(S(=O)(=O)c2ccccc2)c2ccccc12 [Example 124, 2-{1-[1-(phenylsulfonyl)-1H-indol-3-yl]ethylidene}-N-propylhydrazinecarboximidamide] | 75.2
11 | COc1ccc(S(=O)(=O)n2cc(C(=NNC(=N)N)C3CC3)c3ccccc32)cc1OC [Example 71, 2-(cyclopropyl{1-[(3,4-dimethoxyphenyl)sulfonyl]-1H-indol-3-yl}methylidene)hydrazinecarboximidamide] | 61.5
12 | CC(=NNC(=N)N)c1cn(S(=O)(=O)c2cccc3c(N(C)C)cccc23)c2ccccc12 [Example 38, 2-[1-(1-{[5-(dimethylamino)-1-naphthyl]sulfonyl}-1H-indol-3-yl)ethylidene]hydrazinecarboximidamide] | 25.8
13 | CC(=NNC(=N)N)c1cn(S(=O)(=O)c2ccc(Cl)s2)c2ccccc12 [Example 37, 2-(1-{1-[(5-chlorothien-2-yl)sulfonyl]-1H-indol-3-yl}ethylidene)hydrazinecarboximidamide] | 75.2
14 | COc1ccc(S(=O)(=O)n2cc(C(=NNC(=N)N)C3CC3)c3ccc(F)cc32)cc1OC [Example 117, 2-(cyclopropyl{1-[(3,4-dimethoxyphenyl)sulfonyl]-6-fluoro-1H-indol-3-yl}methylidene)hydrazinecarboximidamide] | 78.2
15 | CC(=NNC(=N)N)c1cn(S(=O)(=O)c2ccccc2Br)c2ccccc12 [Example 31, 2-(1-{1-[(2-bromophenyl)sulfonyl]-1H-indol-3-yl}ethylidene)hydrazinecarboximidamide] | 83.3
16 | CC(=NNC(=N)N)c1cn(S(=O)(=O)c2cc(Cl)c(Cl)s2)c2ccccc12 [Example 42, 2-(1-{1-[(4,5-dichlorothien-2-yl)sulfonyl]-1H-indol-3-yl}ethylidene)hydrazinecarboximidamide] | 46.3
17 | CC(=NNC(=N)N)c1cn(S(=O)(=O)c2sc(Cl)cc2Br)c2ccccc12 [Example 29, 2-(1-{1-[(3-bromo-5-chlorothien-2-yl)sulfonyl]-1H-indol-3-yl}ethylidene)hydrazinecarboximidamide] | 60.3
18 | CC(=NNC(=N)N)c1cn(C(=O)Oc2ccccc2)c2ccccc12 [Example 128, phenyl 3-(1-{2-[amino(imino)methyl]hydrazono}ethyl)-1H-indole-1-carboxylate] | 23.9
19 | CCCCS(=O)(=O)n1cc(C(C)=NNC(=N)N)c2ccccc21 [Example 58, 2-{1-[1-(butylsulfonyl)-1H-indol-3-yl]ethylidene}hydrazinecarboximidamide] | 78.3
20 | CC(=NNC(=N)N)c1cn(S(=O)(=O)c2cc(Br)c(Br)s2)c2ccccc12 [Example 39, 2-(1-{1-[(4,5-dibromothien-2-yl)sulfonyl]-1H-indol-3-yl}ethylidene)hydrazinecarboximidamide] | 62.1
21 | CC(=NNC(=N)N)c1cn(C(=O)c2ccccc2)c2ccccc12 [Example 130, 2-[1-(1-benzoyl-1H-indol-3-yl)ethylidene]hydrazinecarboximidamide] | 49.6
22 | CC(=NNC(=N)N)c1cn(S(=O)(=O)c2c(Cl)nc3sccn23)c2ccccc12 [Example 36, 2-(1-{1-[(6-chloroimidazo[2,1-b][1,3]thiazol-5-yl)sulfonyl]-1H-indol-3-yl}ethylidene)hydrazinecarboximidamide] | 86.4

Same assay, conditions: test compound dose 1000 nM; [3H]-LSD 3.0 nM; read-out: % Inhibition

Row | SMILES | inhibition at 1 µM [%]
23 | N=C(N)NN=C(Cc1ccccc1)c1cn(S(=O)(=O)c2ccccc2)c2ccccc12 [Example 6, 2-{2-phenyl-1-[1-(phenylsulfonyl)-1H-indol-3-yl]ethylidene}hydrazinecarboximidamide] | 97.8
24 | CCCCC(=NNC(=N)N)c1cn(S(=O)(=O)c2ccc(OC)cc2)c2cc(F)ccc12 [Example 107, 2-(1-{6-fluoro-1-[(4-methoxyphenyl)sulfonyl]-1H-indol-3-yl}pentylidene)hydrazinecarboximidamide] | 61.5
25 | CC(C)CC(=NNC(=N)N)c1cn(S(=O)(=O)c2ccccc2)c2ccccc12 [Example 7, 2-{3-methyl-1-[1-(phenylsulfonyl)-1H-indol-3-yl]butylidene}hydrazinecarboximidamide] | 98.5
26 | CCCCC(=NNC(=N)N)c1cn(S(=O)(=O)CCCC)c2ccc(Cl)cc12 [Example 76, 2-{1-[1-(butylsulfonyl)-5-chloro-1H-indol-3-yl]pentylidene}hydrazinecarboximidamide] | 74.5
27 | CCCCC(=NNC(=N)N)c1cn(S(C)(=O)=O)c2ccc(Cl)cc12 [Example 73, 2-{1-[5-chloro-1-(methylsulfonyl)-1H-indol-3-yl]pentylidene}hydrazinecarboximidamide] | 71
28 | CCCCC(=NNC(=N)N)c1cn(S(=O)(=O)c2ccc(OC)cc2)c2ccc(Cl)cc12 [Example 79, 2-(1-{5-chloro-1-[(4-methoxyphenyl)sulfonyl]-1H-indol-3-yl}pentylidene)hydrazinecarboximidamide] | 61
29 | CC(=NNC(=N)N)c1c(-c2ccc(F)c(Cl)c2)n(S(=O)(=O)c2ccccc2)c2ccccc12 [Example 12, 2-{1-[2-(3-chloro-4-fluorophenyl)-1-(phenylsulfonyl)-1H-indol-3-yl]ethylidene}hydrazinecarboximidamide] | 75.6
30 | N=C(N)NN=C(c1c(-c2ccc(Cl)cc2)n(S(=O)(=O)c2ccc3ccccc3c2)c2ccccc12)C1CC1 [Example 94, 2-[[2-(4-chlorophenyl)-1-(2-naphthylsulfonyl)-1H-indol-3-yl](cyclopropyl)methylidene]hydrazinecarboximidamide] | 27.9
31 | CCCCC(=NNC(=N)N)c1c(-c2ccc(Cl)cc2)n(S(=O)(=O)c2ccccc2)c2ccccc12 [Example 96, 2-{1-[2-(4-chlorophenyl)-1-(phenylsulfonyl)-1H-indol-3-yl]pentylidene}hydrazinecarboximidamide] | 20
32 | Cc1ccc(S(=O)(=O)n2cc(C=NN(C)C3=NCCN3)c3ccccc32)cc1 [Example 4, 1-[(4-methylphenyl)sulfonyl]-1H-indole-3-carbaldehyde 4,5-dihydro-1H-imidazol-2-yl(methyl)hydrazone] | 71.9
33 | N=C(N)NN=Cc1cn(S(=O)(=O)c2ccccc2)c2ccc(OCc3ccccc3)cc12 [Example 21, 2-{[5-(benzyloxy)-1-(phenylsulfonyl)-1H-indol-3-yl]methylidene}hydrazinecarboximidamide] | 57.4
34 | CC(=NNC(=N)N)c1cn(S(=O)(=O)c2ccc3ccccc3c2)c2ccccc12 [Example 64, 2-{1-[1-(2-naphthylsulfonyl)-1H-indol-3-yl]ethylidene}hydrazinecarboximidamide] | 89.6
35 | CCCCC(=NNC(=N)N)c1cn(S(=O)(=O)c2ccc(OC)cc2)c2ccccc12 [Example 62, 2-(1-{1-[(4-methoxyphenyl)sulfonyl]-1H-indol-3-yl}pentylidene)hydrazinecarboximidamide] | 68.3
